Data set [1] addresses T1, human DUB module (hDUBm; USP22, ATXN7, ATXN7L3, ENY2) (Homo sapiens, UniProt Q9UPT9).
T1 construct: 6xHis (TEV-cleavable) (N, cleaved yes); made in house; host or cells: High Five insect cells (baculovirus, Bac2Bac; virus amplified in Sf9)
The experiment in a line: Ub-AMC deubiquitination assay, human DUB module. Particulars: 200 nM DUB, 1 μM Ub-AMC; read-out: Ki (apparent, Morrison approximation), Ub-AMC cleavage. The class given is biochemical. The procedure:
FIG. 2A is a graph of initial rates of Ub-AMC cleavage by hDUB module as a function of substrate concentration. […] FIGS. 2B-2G are graphs of each cyclic peptide, as indicated, tested for its ability to inhibit Ub-AMC cleavage in the presence of increasing amounts of the peptide into a reaction with a fixed amount of DUB (200 nM) and Ub-AMC (1 μM). Ki values were determined for each curve using the Morrison Ki approximation.
Ub-AMC deubiquitination assay A working stock mixture of either yDUBm or hDUBm was prepared in the presence of either DMSO (mock) or a dilution series of the cyclic peptide. […] Each enzyme:peptide mixture was incubated for 30 min at 30° C. in the case of yDUBm, and 37° C. in the case of hDUBm, with each enzyme complex at 1.033× the desired concentration (207 nM). The enzyme:peptide mixture ([…]) was added to 1 μL of 30 μM U b-AMC (7-amino-4-methylcoumarin) (Boston Biochem), for a final concentration of 200 nM DUBm, the indicated cyclic peptide concentration, and 1 μM Ub-AMC. DUB activity was measured by observing the increase in AMC fluorescence in a plate reader, and the initial rate of fluorescence increase was calculated and plotted as a function of inhibitor concentration (FIGS. 2B-2I). The Ki values were determined using the Morrison approximation of enzyme inhibition equilibria within Prism (Graphpad).
The cyclic peptides that constituted potential inhibitors were chemically synthesized by solid phase peptide synthesis and tested for their effectiveness and specificity as inhibitors in vitro. Since the enzyme kinetics of the human DUB module had not previously been characterized, hDUBm activity was assayed using the fluorogenic substrate, ubiquitin-amino methyl coumarin (Ub-AMC) (FIG. 2A).

In data set [2] the target is human DUB module (hDUBm) on H2B-K120 ubiquitinated nucleosomes (Homo sapiens, UniProt Q9UPT9). The experiment in a line: Deubiquitination of nucleosomal H2B by hDUBm. Particulars: 1 μM cyclic peptide, 200 nM hDUBm, 1 uM H2B-Ub nucleosome.
Procedure: Deubiquitination of nucleosomal H2B Recombinant human mononucleosomes containing histone H2B ubiquitinated at K120 (H2B-Ub) were obtained from Epicypher (dNuc, 16-0370) and diluted to 2 μM with reaction buffer. Both hDUBm and inhibitor peptides were diluted from concentrated stocks with reaction buffer (10 mM HEPES pH 7.5, 150 mM NaCl, 1 μM ZnCl2, and 0.2 mM TCEP) to a final concentration of 400 nM DUB module and 2 μM cyclic peptide and incubated at 37° C. for 20 minutes. Reactions were initiated by combining equal volumes of the enzyme-peptide mixture and nucleosomes, resulting in final concentrations of 200 nM hDUBm, 1 μM cyclic peptide, and 1 uM H2B-Ub nucleosome. Time points of the reaction were quenched with SDS sample buffer, separated by SDS-PAGE (Invitrogen, Bolt gels), and stained with Sypro Ruby (Life Technologies). Gels were imaged and quantitated (BioRad product info), using the H3 band as an independent load control to normalize the band intensities of H2B-Ub. Experiments were done in triplicate and analyzed using Prism (GraphPad).
To test the effectiveness of the inhibitors on a native-like substrate, the ability of each cyclic peptide to inhibit DUB activity on nucleosomes ubiquitinated at H2B-K120 was assayed.
Data set [3] relates to H2B-Ub levels in HEK293T cells. The experiment in a line: Cell-based assay of H2B-Ub levels (histone extraction, western blot). On the set-up: species or system human. Particulars: 5 μM, two hours, normalized to H3. As for the experimental part:
Bottom: anti-histone H3 loading control.
Cell-based Assay HEK293T cells were purchased from ATCC (CRL-3216) and cultures were expanded for at least 10 passages in Dulbecco's Modified Eagle Medium (DMEM) supplemented with 10% fetal bovine serum (FBS) in T75 flasks incubated in a 37° C. and 5% CO2 cabinet before any manipulation. Once cells were mature, HEK293T cells were grown to 80% confluence in 6-well plates, the media were aspirated, and media with reduced FBS (DMEM, 2% FBS) and 5 μM cyclic peptide were introduced. After two hours, the media were aspirated, and the cells were collected by scraping (˜1×10^6 cells per well). The cells were then washed in 1× PBS twice followed by histone extraction (Active Motif). The extracted histones were then western blotted for H2B-Ub levels (Cell Signaling, 5546S), using H3 western blotting (Abcam, ab1791) to normalize loading.
Each cyclic peptide was introduced as a supplement to the growth medium of HEK293T cells, the histones were extracted from each culture after two hours of exposure, and the levels of H2B-Ub was quantified by immunoblot. Levels of H2B-Ub were compared to control cells that were treated with DMSO, the yD1 cyclic peptide that has no effect on USP22 activity, or the broad-spectrum cell permeable DUB inhibitor. PR-619. The relative abundance of histone H3 was used to control for differences in nuclear extraction.
A general note: In western blotting, separated proteins are transferred to a membrane and probed.

Data set [4] is described as follows: Solubility in aqueous conditions. The class given is physicochemical.

Positions of bridges follow the written chain, without caps; N, C: chain ends. Non-standard residues stand in square brackets, D forms with d. Residues, ends and D or L forms follow the SMILES beside them.

T1 sequence (Q9UPT9 whole entry): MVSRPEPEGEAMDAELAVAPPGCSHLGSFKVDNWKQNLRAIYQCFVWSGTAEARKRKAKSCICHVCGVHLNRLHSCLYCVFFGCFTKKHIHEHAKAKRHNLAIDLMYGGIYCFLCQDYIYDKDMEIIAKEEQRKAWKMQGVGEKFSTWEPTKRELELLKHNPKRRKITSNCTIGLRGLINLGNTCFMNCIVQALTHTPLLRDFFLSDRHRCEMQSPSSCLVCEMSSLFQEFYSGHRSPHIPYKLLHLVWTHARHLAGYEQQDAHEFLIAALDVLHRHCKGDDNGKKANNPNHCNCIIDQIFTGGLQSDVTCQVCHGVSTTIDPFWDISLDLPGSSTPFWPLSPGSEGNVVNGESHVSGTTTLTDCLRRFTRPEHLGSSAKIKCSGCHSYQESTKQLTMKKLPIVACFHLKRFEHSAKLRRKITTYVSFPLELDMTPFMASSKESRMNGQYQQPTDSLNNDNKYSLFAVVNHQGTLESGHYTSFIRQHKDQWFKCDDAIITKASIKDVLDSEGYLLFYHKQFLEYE
T1 sequence (O15265 3-151 partner limits assumed): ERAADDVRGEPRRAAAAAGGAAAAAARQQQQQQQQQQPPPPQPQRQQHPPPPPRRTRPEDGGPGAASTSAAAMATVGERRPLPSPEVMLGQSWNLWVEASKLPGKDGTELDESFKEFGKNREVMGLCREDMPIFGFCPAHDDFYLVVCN
T1 sequence (Q14CW9 whole entry partner): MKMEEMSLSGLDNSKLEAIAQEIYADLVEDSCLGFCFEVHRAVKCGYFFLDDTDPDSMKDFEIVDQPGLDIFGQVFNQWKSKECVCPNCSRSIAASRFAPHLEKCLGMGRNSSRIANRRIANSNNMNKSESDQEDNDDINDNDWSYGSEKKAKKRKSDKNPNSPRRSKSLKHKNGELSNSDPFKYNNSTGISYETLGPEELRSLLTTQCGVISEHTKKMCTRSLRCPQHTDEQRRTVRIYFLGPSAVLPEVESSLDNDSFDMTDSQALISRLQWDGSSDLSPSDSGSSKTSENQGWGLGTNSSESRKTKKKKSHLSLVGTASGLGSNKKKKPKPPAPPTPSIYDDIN
T1 sequence (Q9NPA8 whole entry partner): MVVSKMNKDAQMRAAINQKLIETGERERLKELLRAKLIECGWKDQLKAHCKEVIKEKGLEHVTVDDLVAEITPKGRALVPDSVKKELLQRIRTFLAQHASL
Chain of human DUB module (hDUBm) on H2B-K120 ubiquitinated nucleosomes (Q9UPT9 whole entry): as the sequence (Q9UPT9 whole entry) above
Chain of human DUB module (hDUBm) on H2B-K120 ubiquitinated nucleosomes (O15265 3-151 partner limits assumed): as the sequence (O15265 3-151 partner limits assumed) above
Chain of human DUB module (hDUBm) on H2B-K120 ubiquitinated nucleosomes (Q14CW9 whole entry partner): as the sequence (Q14CW9 whole entry partner) above
Chain of human DUB module (hDUBm) on H2B-K120 ubiquitinated nucleosomes (Q9NPA8 whole entry partner): as the sequence (Q9NPA8 whole entry partner) above

Consider `CC[C@H](C)[C@@H]1NC(=O)[C@H](Cc2c[nH]c3ccccc23)NC(=O)[C@@H](Cc2ccc(O)cc2)NC(=O)CSC[C@@H](C(N)=O)NC(=O)[C@H](Cc2ccccc2)NC(=O)[C@H](CO)NC(=O)[C@H](CCCCN)NC(=O)[C@H](CO)NC(=O)[C@H](CC(C)C)NC(=O)CNC(=O)[C@H](CCCNC(=N)N)NC(=O)[C@H](Cc2ccc(O)cc2)NC(=O)[C@H](CO)NC(=O)[C@H](Cc2c[nH]cn2)NC(=O)[C@H]([C@@H](C)O)NC1=O` [hD4] ({CH2CO}-[dY]WITHSYRGLSKSFC-NH2; thioether N-15), for which the Ki in data set [1] worked out at 804 nM.

With `CC(C)C[C@@H]1NC(=O)[C@H](Cc2c[nH]c3ccccc23)NC(=O)[C@H](CO)NC(=O)[C@H](CCCNC(=N)N)NC(=O)[C@H](CC(C)C)NC(=O)[C@H](CCCNC(=N)N)NC(=O)[C@H](Cc2ccc(O)cc2)NC(=O)[C@H](Cc2ccc(O)cc2)NC(=O)[C@H](CO)NC(=O)[C@@H]2CCCN2C(=O)CNC(=O)[C@H](CC(N)=O)NC(=O)[C@@H](Cc2ccc(O)cc2)NC(=O)CSC[C@@H](C(N)=O)NC(=O)[C@H](CO)NC(=O)[C@H](CO)NC1=O` [hD3] ({CH2CO}-[dY]NGPSYYRLRSWLSSC-NH2; thioether N-16), in data set [2], the “inhibition of nucleosomal H2B-Ub cleavage by hDUBm” value was “inhibit the enzymatic activity”.

Turning to `N#CSc1cc(SC#N)c(N)nc1N` [PR-619], in data set [3], the “change of H2B-Ub levels” value was “minor increase”.

`C[C@@H]1NC(=O)CNC(=O)[C@H](CCCNC(=N)N)NC(=O)[C@H](Cc2ccc(O)cc2)NC(=O)[C@H](CO)NC(=O)[C@H](Cc2c[nH]c3ccccc23)NC(=O)[C@H](CCC(N)=O)NC(=O)[C@H](Cc2c[nH]cn2)NC(=O)[C@@H](Cc2ccc(O)cc2)NC(=O)CSC[C@@H](C(N)=O)NC(=O)[C@H](CO)NC(=O)[C@H](CCCNC(=N)N)NC(=O)[C@H](Cc2ccc(O)cc2)NC(=O)[C@H]([C@@H](C)O)NC1=O` [hD2] ({CH2CO}-[dY]HQWSYRGATYRSC-NH2; thioether N-14): in data set [1], the Ki was below 100 nM.

Take `CC(C)C[C@@H]1NC(=O)[C@H](Cc2ccc(O)cc2)NC(=O)CSC[C@@H](C(N)=O)NC(=O)[C@H](Cc2ccc(O)cc2)NC(=O)[C@H](CC(C)C)NC(=O)[C@H](CCCNC(=N)N)NC(=O)[C@H](CC(C)C)NC(=O)[C@H](CO)NC(=O)[C@H](Cc2c[nH]c3ccccc23)NC(=O)CNC(=O)[C@H](Cc2ccccc2)NC(=O)[C@H](CO)NC(=O)[C@H](Cc2ccccc2)NC(=O)[C@H](C)NC(=O)[C@H](CO)NC(=O)[C@H](CC(=O)O)NC(=O)[C@H](Cc2c[nH]cn2)NC1=O` [yL1] ({CH2CO}-YLHDSAFSFGWSLRLYC-NH2; thioether N-17): the “solubility in aqueous conditions” value in data set [4] is recorded as “insoluble in aqueous conditions”.

`CC[C@H](C)[C@@H]1NC(=O)[C@H](Cc2c[nH]cn2)NC(=O)[C@H](CC(=O)O)NC(=O)[C@H](CO)NC(=O)[C@H](Cc2c[nH]c3ccccc23)NC(=O)[C@H](Cc2ccccc2)NC(=O)[C@H](CCCNC(=N)N)NC(=O)[C@H](Cc2ccccc2)NC(=O)[C@H](CC(N)=O)NC(=O)[C@H](CC(C)C)NC(=O)[C@H]([C@@H](C)O)NC(=O)[C@H](Cc2ccc(O)cc2)NC(=O)CSC[C@@H](C(N)=O)NC(=O)[C@H](CO)NC(=O)[C@H](Cc2ccc(O)cc2)NC(=O)[C@H](Cc2c[nH]c3ccccc23)NC(=O)[C@H](CO)NC1=O` [hL1] ({CH2CO}-YTLNFRFWSDHISWYSC-NH2; thioether N-17): in data set [1], the Ki is below 100 nM.
